Measurements taken from ChEMBL document CHEMBL1155631, “Cembrane diterpenes from the southern African soft coral Cladiella kashmani” (J Nat Prod, 2000).

Tested on: Artemia salina
Assay: Toxicity against Artemia salina
Assay type: organism-based
Details: in vivo

| SMILES | LC50 |
| --- | --- |
| C/C1=C\C=C(\C(C)C)[C@@H](O)C[C@]2(C)O[C@H]2CC/C(C)=C/CC1 | 50 ppm |
| CC(=O)O[C@H]1/C(C(C)C)=C\C=C(/C)CC/C=C(\C)CC[C@@H]2O[C@]2(C)[C@H]1C(C)=O | 110 ppm |
| CC(=O)O[C@@H]1/C(C(C)C)=C\C=C(/C)CC/C=C(\C)CC[C@@H]2O[C@]2(C)[C@H]1O [FLACCIDOXIDE] | 180 ppm |
